Data set [1] deals with T1, TEL-CSF1R-BaF3 (Homo sapiens, UniProt P07333).
T1 construct: expressed in transfected cells; host or cells: mouse BaF3 cells (ATCC), retroviral transduction with MSCV-Puro vector, IL-3 withdrawn; the other entry of the earlier key: ETV6 (P41212, Transcription factor ETV6)
T1 sequence (P07333 582-910 limits assumed): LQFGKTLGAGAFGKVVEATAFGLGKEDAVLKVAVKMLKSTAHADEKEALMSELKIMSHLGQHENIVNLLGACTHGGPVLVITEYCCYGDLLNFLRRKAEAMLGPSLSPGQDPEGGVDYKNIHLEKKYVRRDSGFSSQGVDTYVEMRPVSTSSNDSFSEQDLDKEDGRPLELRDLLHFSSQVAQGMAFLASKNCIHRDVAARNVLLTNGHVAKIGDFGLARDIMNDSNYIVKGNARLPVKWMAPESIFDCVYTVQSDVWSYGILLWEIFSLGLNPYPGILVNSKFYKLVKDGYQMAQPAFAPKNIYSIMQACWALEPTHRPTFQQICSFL
Description: Proliferation of TEL-CSF1R-BaF3 cells (CCK-8, 72 hours). The data set is classed as cell-based. The following applies: 72 hours incubation, CCK-8. Here is the method:
(§1) The incubated cells were detected by CCK-8 (purchased from MedChem Express, China) cell viability detection kit (CCK-8 can be reduced by dehydrogenases in living cells to a highly water-soluble yellow formazan product, and the amount of the generated formazan product is proportional to the number of living cells). The number of living cells was quantified by a microplate reader, and the GI50 for each compound was calculated (the results are shown in Table 2).
The construction method of the TEL-CSF1R-BaF3 cell line (a cell line stably expressing CSF1R kinase) was as follows: the sequence of human CSF1R kinase region was amplified by PCR and inserted into the MSCV-Puro vector (Clontech) with an N-terminal TEL fragment, and stably transferred into mouse BaF3 cells (purchased from ATCC, USA) by a retroviral method, and IL-3 growth factor was removed, finally a cell line dependent on CSF1R transferred protein was obtained.

Data set [2] concerns M-NSF-60. Description: Proliferation of M-NSF-60 cells with M-CSF (CCK-8, 72 hours). The following applies: Mus musculus; M-CSF 50 ng/ml in medium, 72 hours incubation, CCK-8; read-out: M-NSF-60 (GI50/μM). It counts as cell-based, mouse. Here is the method:
as §1

The subject of data set [3] is MC38 cells. Description: In vivo efficacy in MC38 cell tumor transplantation mouse model. The following applies: 50 mg/kg oral once a day. The protocol: (§2) In this example, the experimental effects of Compound 2 and the control compound PLX3397 (purchased from MedChem Express, China) in MC38 and 4T1 mouse models were tested respectively.
(§3) The experimental procedure was as follows: • (1) C57BL/6J male mice for use as MC38 transplanted tumor model and Balb/c male mice for use as 4T1 transplanted tumor model, which were 6 weeks old, were purchased from GemPharmatech Co., Ltd, Jiangsu. All the above mice were raised in an SPF laboratory, and the drinking water and padding had been sterilized by high pressure sterilization. All operations related to mice were performed under sterile conditions. • (2) On day 0, approximately 1×10^6 MC38 cells (purchased from ATCC) were injected subcutaneously into the left back of each of the C57BL/6J mice, and approximately 1×10^6 4T1 cells (purchased from ATCC) were injected subcutaneously into the left back of each of the Balb/c mice. • (3) For the MC38 mouse model, starting from the 6th day, the corresponding mice were orally administered with methylcellulose (HKI) (purchased from China National Pharmaceutical Group Corporation) solvent once a day (5 mice); Compound 2 at a dose of 50 mg/kg mouse weight once a day (5 mice); PLX3397 at a dose of 50 mg/kg mouse weight once a day (5 mice). For the 4T1 mouse model, starting from the 6th day, the corresponding mice were orally administered with 10% HS-15 (purchased from BASF, Germany) solvent (5 mice); Compound 2 at a dose of 50 mg/kg mouse weight once a day (5 mice); PLX3397 at a dose of 50 mg/kg mouse weight once a day (5 mice). • (4) Starting from the 6th day, the length/width of the subcutaneous tumor was measured with a vernier caliper every day, and the weight of the mice was recorded every day to determine the effects of Compound 2 and control compound PLX3397 on the weight of mice in different model mice. The results are shown in FIGS. 3 and 6. • (5) The growth trends of subcutaneous tumors in mice of different models were statistically analyzed. The tumor volume was calculated using the following method: length×width×width/2 mm^3. The results are shown in FIGS. 4 and 7. • (6) Isolation of tumor-infiltrating lymphocytes: Tumor tissue was first minced (tissue block less than 1 mm^3) with a surgical blade, resuspended in 6 ml of digestion solution (collagenase IV and 0.005% DNaseI enzyme, both purchased from Sigma, USA), and the mixture was transferred to a 15-ml centrifuge tube. The centrifuge tube was then placed in a shaker at 37° C. and digested with shaking at 220 r/min for 2 hours. The cells were sieved through a 200-mesh sieve and collected in a 50-ml centrifuge tube, and centrifuged at 1500 rpm for 10 minutes. The supernatant was then discarded, and 10 ml of DMEM medium (10% FBS) (purchased from GIBCO, USA) was added to the tube to terminate the digestion. The tube was placed in a centrifuge, and centrifuged at 1500 rpm for another 10 minutes. The supernatant was discarded. At the same time, Percoll separation solution (purchased from Millipore, USA) was prepared, and 90% Percoll separation working solution was prepared using 10×PBS. To a 15 ml centrifuge tube, 3-4 ml of 70% Percoll separation solution was added. The cells were resuspended in 4 ml of 40% Percoll separation solution, and the cell mixture was added to the 70% Percoll separation solution. The centrifuge tube was placed in a centrifuge and subjected to density gradient centrifugation at 25° C., 1260 g, for 30 minutes (speed up 5, speed down 0). After the centrifugation, the centrifuge tube was placed on a centrifuge tube rack, the middle leukocyte layer was aspirated with a pipette, and added to 10 ml of PBS, they were mixed well and placed in a centrifuge, and centrifuged at 1500 rpm. The cell supernatant was discarded after 10 min and the cells were resuspended in 5 ml of PBS, centrifuged at 1500 rpm for another 10 min, and the washing process was repeated once. The cells obtained were leukocytes in the tumor tissue. […]

For data set [4], the system named is 4T1 cells. Description: In vivo efficacy in 4T1 cell tumor transplantation mouse model. The following applies: 4T1 model, 50 mg/kg oral once a day. Here is the method: as §2, §3

SMILES strings stand for the structures.

Consider `COc1cc2nccc(Oc3ccc(NC(=O)Cc4ccc(Cl)c(C(F)(F)F)c4)c(C)c3)c2cc1OC` [Example 26, N-(2-methyl-4-((6,7-dimethoxyquinolin-4-yl)oxy)phenyl)-2-(4-chloro-3-(trifluoromethyl)phenyl)acetamide], for which the GI50 in data set [1] was 0.006 µM; in data set [2] it was 0.06 µM.

As for `COc1cc2nccc(Oc3ccc(NC(=O)Cc4ccc(Cl)c(C(F)(F)F)c4)cc3C)c2cc1OC` [Example 27, N-(3-methyl-4-((6,7-dimethoxyquinolin-4-yl)oxy)phenyl)-2-(4-chloro-3-(trifluoromethyl)phenyl)acetamide], the GI50 worked out at 0.003 µM in data set [1] and 0.041 µM in data set [2].

Consider `COc1cc2nccc(Oc3ccc(NC(=O)Cc4ccc(Cl)c(C(F)(F)F)c4)cc3OC)c2cc1OC` [Example 37, N-(3-methoxy-4-((6,7-dimethoxyquinolin-4-yl)oxy)phenyl)-2-(4-chloro-3-(trifluoromethyl)phenyl)acetamide], for which the GI50 turned out to be 0.004 µM in data set [1] and 0.075 µM in data set [2].

As for `COc1cc2nccc(Oc3ccc(NC(=O)Cc4ccc(Cl)c(C(F)(F)F)c4)cc3Cl)c2cc1OC` [Example 38, N-(3-chloro-4-((6,7-dimethoxyquinolin-4-yl)oxy)phenyl)-2-(4-chloro-3-(trifluoromethyl)phenyl)acetamide], the figures for the GI50 in data set [1] and in data set [2] were 0.026 µM and 0.32 µM, respectively.

For `COc1cc2nccc(Oc3ccc(NC(=O)Cc4ccc(Cl)c(C(F)(F)F)c4)cc3C#N)c2cc1OC` [Example 39, N-(3-cyano-4-((6,7-dimethoxyquinolin-4-yl)oxy)phenyl)-2-(4-chloro-3-(trifluoromethyl)phenyl)acetamide], the results for the GI50 in data set [1] and in data set [2] were 0.022 µM and 0.61 µM, respectively.

Regarding `COc1cc2nccc(Oc3ccc(NC(=O)Cc4ccccc4C(F)(F)F)cc3)c2cc1OC` [Example 40, N-(4-((6,7-dimethoxyquinolin-4-yl)oxy)phenyl)-2-(2-(trifluoromethyl)phenyl)acetamide], the GI50 in data set [1] came out at 0.007 µM; in data set [2], 0.091 µM.

For the compound `FC(F)(F)c1ccc(CNc2ccc(Cc3c[nH]c4ncc(Cl)cc34)cn2)cn1` [PLX3397, reference compound], the “toxicity (mouse body weight)” value in data set [3] (FIG. 3) and in data set [4] (FIG. 6) was “no obvious toxicity” throughout. The “inhibition effect of mouse tumors” value in data set [3] (FIG. 4) and in data set [4] (FIG. 7) was “good inhibition effect of mouse tumors” each time.
